According to patent publication US20260272964A1, “PENTAGALLOYL GLUCOSE DERIVED FROM SCHINUS PLANTS AND METHODS OF USE” (Emory University, priority 2020, published 2026):
Converted amounts (≈) assume the structure as drawn. Read-outs that look alike come from different tables or passages of the source.

Columns and labels:
Acinetobacter baumannii = assay: Growth inhibition of Acinetobacter baumannii (CRAB and susceptible strains); type: cell-based; conditions: for IC50 / MIC: Acinetobacter baumannii; for IC50: read-out: PGG IC50; for MIC: read-out: PGG MIC
Protocol: A natural products library was screened for growth inhibition of CRAB. Lead extracts were then tested in serial dilution and nine extracts from seven species were chosen for further study based on activity. Extract 429, made from the leaves of Schinus terebinthifolia, underwent bioassay-guided fractionation for growth inhibition (FIG. 1).
A library of botanical extracts generated from plants was screened for growth inhibition of CRAB. […] Bioassay-guided fractionation lead to the isolation of pentagalloyl glucose (PGG), a bioactive gallotannin. […] Topical applications of PGG, such as wound rinses and dressings, are contemplated. […]

Candida glabrata = assay: Growth inhibition of Candida species; type: cell-based
Protocol: (§1) The activity of PGG was tested for growth inhibition against two susceptible strains and 6 drug resistant strains from three Candida species (Table 2). […] The activity of PGG followed a dose-response curve against tested strains. Typically the strains tested had MICs less than 2 μg/mL. Candida glabrata (AR Bank #0335) yielded the highest MIC at 8 μg/mL.

Candida albicans = assay: Growth inhibition of Candida species; type: cell-based
Protocol: as §1

Candida parapsilosis = assay: Growth inhibition of Candida species; type: cell-based; conditions: Lodderomyces parapsilosis
Protocol: as §1

Candida auris = assay: Growth inhibition of Candida species; type: cell-based; conditions: Candidozyma auris
Protocol: as §1

Candida tropicalis = assay: Growth inhibition of Candida species; type: cell-based; conditions: Table 2, strain AR Bank #0345
Protocol: as §1

A. baumannii = assay: Growth inhibition assays with media supplementation; type: cell-based, Acinetobacter baumannii
Protocol: PGG antibacterial activity may be attributed to its chelation of iron. One can use a colorimetric assay to quantify binding of free iron by PGG. One can perform bioassays with iron supplementation and 2,2′-dipyridyl, a known iron chelator, as a control. To elucidate potential mechanisms of action of PGG, A. baumannii growth inhibition and time-kill assays were carried out with various supplements in combination with PGG: 0.02% oleic acid, 0.02% polysorbate 80, 1 mM iron (II) sulfate, and 1 mM iron (III) sulfate. […] Furthermore, PGG combined with oleic acid, polysorbate 80, and iron (II) sulfate treatments had roughly tenfold, 100-fold, and 1,000-fold higher CFU/mL measurements, respectively, than PGG alone at the 24 h timepoint.

## O=C(OC[C@H]1O[C@@H](OC(=O)c2cc(O)c(O)c(O)c2)[C@H](OC(=O)c2cc(O)c(O)c(O)c2)[C@@H](OC(=O)c2cc(O)c(O)c(O)c2)[C@@H]1OC(=O)c1cc(O)c(O)c(O)c1)c1cc(O)c(O)c(O)c1 [PGG, [(2R,3R,4S,5R,6S)-3,4,5,6-tetrakis[(3,4,5-trihydroxybenzoyl)oxy]oxan-2-yl]methyl 3,4,5-trihydroxybenzoate]
Acinetobacter baumannii; strain AR Bank #0299
  IC50: 8 µg/mL (≈ 8.5 µM)
  MIC: 128 µg/mL (≈ 136 µM)
Acinetobacter baumannii; strain AR Bank #0300
  IC50: 8 µg/mL (≈ 8.5 µM)
  MIC: 256 µg/mL (≈ 272 µM)
Acinetobacter baumannii; strain NR-9667
  IC50: 16 µg/mL (≈ 17 µM)
  MIC: 256 µg/mL (≈ 272 µM)
Acinetobacter baumannii; strain Naval-81
  IC50: 16 µg/mL (≈ 17 µM)
  MIC: > 256 µg/mL
Acinetobacter baumannii; strain OIFC143
  IC50: 8 µg/mL (≈ 8.5 µM)
  MIC: 128 µg/mL (≈ 136 µM)
Acinetobacter baumannii; CRAB, fractions of extract 429
  activity in bioassay-guided fractionation for growth inhibition: most active constituent
Acinetobacter baumannii; strain ATCC17978
  PGG MIC: >256 µg/mL
Candida glabrata; Nakaseomyces glabratus, Table 2, strain AR Bank #0325
  IC50: 0.5 µg/mL (≈ 0.532 µM)
Candida glabrata; Nakaseomyces glabratus, Table 2, strain AR Bank #0325, read-out: MIC
  MIC: 1 µg/mL (≈ 1.06 µM)
Candida glabrata; Nakaseomyces glabratus, Table 3, strain AR Bank #0325
  IC50: 0.5 µg/mL (≈ 0.532 µM)
Candida glabrata; Nakaseomyces glabratus, Table 3, strain AR Bank #0325, read-out: MIC
  MIC: 1 µg/mL (≈ 1.06 µM)
Candida glabrata; Nakaseomyces glabratus, Table 3, strain AR Bank #0326
  IC50: 0.25 µg/mL (≈ 0.266 µM)
Candida glabrata; Nakaseomyces glabratus, Table 3, strain AR Bank #0326, read-out: MIC
  MIC: 0.5 µg/mL (≈ 0.532 µM)
Candida glabrata; Nakaseomyces glabratus, Table 3, strain AR Bank #0335
  IC50: 2 µg/mL (≈ 2.13 µM)
Candida glabrata; Nakaseomyces glabratus, Table 3, strain AR Bank #0335, read-out: MIC
  MIC: 8 µg/mL (≈ 8.5 µM)
Candida glabrata; Table 3, strain AR Bank #0335
  MIC: 8.0 µg/mL (≈ 8.5 µM)
Candida albicans; Candida albicans, Table 2, strain ARMH12 (Flc^R)
  IC50: 0.5 µg/mL (≈ 0.532 µM)
Candida albicans; Candida albicans, Table 2, strain ARMH12 (Flc^R), read-out: MIC
  MIC: 1 µg/mL (≈ 1.06 µM)
Candida albicans; Candida albicans, Table 2, strain ATCC10231
  IC50: 0.25 µg/mL (≈ 0.266 µM)
Candida albicans; Candida albicans, Table 2, strain ATCC10231, read-out: MIC
  MIC: 0.5 µg/mL (≈ 0.532 µM)
Candida albicans; Candida albicans, Table 3, strain ATCC90028
  IC50: 1 µg/mL (≈ 1.06 µM)
Candida albicans; Candida albicans, Table 3, strain ATCC90028, read-out: MIC
  MIC: 2 µg/mL (≈ 2.13 µM)
Candida albicans; Table 3, strain MH12
  MIC: 1.0 µg/mL (≈ 1.06 µM)
Candida parapsilosis; Table 2, strain AR Bank #0337
  IC50: 0.5 µg/mL (≈ 0.532 µM)
  MIC: 1 µg/mL (≈ 1.06 µM)
Candida parapsilosis; Table 3, strain AR Bank #0337
  IC50: 1 µg/mL (≈ 1.06 µM)
  MIC: 1 µg/mL (≈ 1.06 µM)
Candida parapsilosis; Table 3, strain AR Bank #0338
  IC50: 0.5 µg/mL (≈ 0.532 µM)
  MIC: 1 µg/mL (≈ 1.06 µM)
Candida parapsilosis; Table 3, strain AR Bank #0339
  IC50: 1 µg/mL (≈ 1.06 µM)
  MIC: 2 µg/mL (≈ 2.13 µM)
Candida auris; Table 2, strain AR Bank #0390
  MIC: 0.25 µg/mL (≈ 0.266 µM)
Candida auris; Table 2, strain AR Bank #0381
  IC50: 0.25 µg/mL (≈ 0.266 µM)
  MIC: 0.5 µg/mL (≈ 0.532 µM)
Candida tropicalis
  IC50: 0.25 µg/mL (≈ 0.266 µM)
  MIC: 1 µg/mL (≈ 1.06 µM)
A. baumannii; PGG 256-2 μg/mL with 1 mM iron (II) sulfate
  change of growth inhibition on supplementation: attenuated growth inhibition
A. baumannii; PGG 256-2 μg/mL with 1 mM iron (III) sulfate
  change of growth inhibition on supplementation: attenuated growth inhibition
A. baumannii; PGG 256-2 μg/mL with 0.02% oleic acid
  change of growth inhibition on supplementation: no change in activity
A. baumannii; PGG 256-2 μg/mL with 0.02% polysorbate 80
  change of growth inhibition on supplementation: attenuated growth inhibition
